Legend:
Assay in all cases: Herbicidal activity, post-emergence stem and leaf spray in greenhouse
Type in all cases: in vivo
Conditions in all cases: Post-emergence treatment
[1] = system: Setaria glauca (L.) Beauv.
Description: (§1) Seeds of broadleaf weeds (Zinnia elegans Jacq. and Abutilon theophrasti Medic.) or grass weeds (Setaria glauca (L.) Beauv. and Echinochloa crusgalli (L.) Beauv.) were respectively sown in a paper cup having a diameter of 7 cm and containing nutrient soil. After sowing, the seeds were covered with 1 cm of soil, the soil was pressed and watered, and then the seeds were cultivated in a greenhouse according to a conventional method, and stems and leaves were sprayed after 2-3 leaf stage of the weeds.
(§2) The compounds of the present invention were dissolved in acetone, and then diluted with 0.1% aqueous solution of Tween 80 to form the test liquid. According to the design dose of the test, spray treatment was carried out by track sprayer (Engineer Research Ltd., pressure 1.95 kg/cm^2, volume 500 L/hm^2, track speed 1.48 km/h). The test was repeated for three times. The test material was treated and then placed in an operation hall. The medicinal liquid was naturally dried in the shade, and then was placed in a greenhouse and managed according to the conventional method. The response of the weeds to the drug was visually observed and recorded. After treatment, the state of growth of the respective weeds were visually observed regularly to determine the growth inhibition rate (%) in accordance with the following evaluation standard.
(§3) Growth inhibition rate (%): 0=no discernible action: 100=all weeds dead or not emerged.

Zinnia elegans Jacq. = system: Zinnia elegans Jacq.
Description: as §1, §2, §3

[2] = system: Abutilon theophrasti Medic.
Description: as §1, §2, §3

[3] = dose 37.5 g a.i./hm^2, Table 3 parallel test
[4] = dose 75 g a.i./hm^2, Table 3 parallel test

Structure (SMILES) | growth inhibition rate % ([1]; dose 37.5 g a.i./hm^2, Table 2) | growth inhibition rate % ([1]; dose 150 g a.i./hm^2, Table 2) | growth inhibition rate % ([1]; dose 600 g a.i./hm^2, Table 2) | growth inhibition rate % (Zinnia elegans Jacq.; [3]) | growth inhibition rate % (Zinnia elegans Jacq.; [4]) | growth inhibition rate % [1, 3] | growth inhibition rate % [1, 4] | growth inhibition rate % [2, 3] | growth inhibition rate % [2, 4]
CCn1nc(C(=O)Oc2c(C(=O)c3ccc(S(C)(=O)=O)c(OCC4CC4)c3C)c(C)nn2C)cc1C [Compound 1-20] | 65% | 100% | 100% | – | – | – | – | – | –
C=CCOc1c(S(C)(=O)=O)ccc(C(=O)c2c(C)nn(C)c2OC(=O)c2cc(C)n(CC)n2)c1C [Compound 1-26] | 75% | 100% | 100% | – | – | – | – | – | –
CCn1nc(C(=O)Oc2c(C(=O)c3ccc(S(C)(=O)=O)c(OCCOC)c3C)cnn2CC)cc1C [Compound 1-32] | 90% | 100% | 100% | 100% | 100% | 90% | 100% | 100% | 100%
CCn1nc(C(=O)Oc2c(C(=O)c3ccc(S(C)(=O)=O)c(OCCOC)c3C)c(C)nn2C)cc1C [Compound 1-33] | 70% | 100% | 100% | – | – | – | – | – | –
CCn1nc(C(=O)Oc2c(C(=O)c3ccc(S(C)(=O)=O)c(OCCOC)c3C)c(C)nn2C(C)C)cc1C [Compound 1-34] | 65% | 100% | 100% | – | – | – | – | – | –
CCc1nn(C)c(OC(=O)c2cc(C)n(CC)n2)c1C(=O)c1ccc(S(C)(=O)=O)c(OCCOC)c1C [Compound 1-36] | 70% | 100% | 100% | – | – | – | – | – | –
CCn1nc(C(=O)Oc2c(C(=O)c3ccc(S(C)(=O)=O)c(OCCOC)c3C)c(C)nn2CC)cc1C [Compound 1-37] | 100% | 100% | 100% | – | – | – | – | – | –
CCOCCOc1c(S(C)(=O)=O)ccc(C(=O)c2c(C)nn(C)c2OC(=O)c2cc(C)n(CC)n2)c1C [Compound 1-44] | 70% | 100% | 100% | – | – | – | – | – | –
CCn1nc(C)cc1C(=O)Oc1c(C(=O)c2ccc(S(C)(=O)=O)c(OCCOC)c2C)cnn1CC [Compound 1-139] | 80% | 100% | 100% | – | – | – | – | – | –
CCn1nc(C)cc1C(=O)Oc1c(C(=O)c2ccc(S(C)(=O)=O)c(OCCOC)c2C)c(C)nn1C [Compound 1-140] | 80% | 100% | 100% | – | – | – | – | – | –
CCn1ncc(C(=O)c2ccc(S(C)(=O)=O)c(COCC(F)(F)F)c2Cl)c1OC(=O)c1cn(C)nc1C [KC3, fenpyrazone, reference compound] | – | – | – | 40% | 50% | 60% | 70% | 30% | 95%
